The values that follow come from US10793568B2, “Hormone receptor modulators for treating metabolic conditions and disorders” (ARDELYX, INC., priority 2016, dated 2020).

A word on the EC50: it is the concentration at which the effect is half-maximal. A high value points to lower potency in that assay. As a reminder, the pEC50 is −log10 of the EC50, conventionally taken in molar units.

Assay [1] deals with human Farnesoid X receptor ligand-binding domain/Gal4 DNA binding domain chimera (Homo sapiens (Human), UniProt Q96RI1). Put plainly: Cell-based assay of FXR activation (FXR-UAS-bla HEK 293T beta-lactamase reporter). As to conditions: cellular FXR beta-lactamase reporter assay; for Emax: HEK-293T, extent of activation relative to GW4064, read-out: % Efficacy; for EC50: FXR-UAS-bla HEK 293T cells, 16 h, pEC50 = -log EC50. The procedure, abridged:
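HEK 293T cells stably expressing a Gal4-fused human FXR LBD and a UAS-driven beta-lactamase reporter were incubated with serially diluted compounds for 16 h at 37 °C in phenol red-free DMEM with 2% charcoal-stripped FBS. CCF4 FRET read-out: excitation 409 nm, emission 447 nm. pEC50 comes from a 3-parameter logistic fit, and efficacy is given as % of GW4064.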
A general note: A reporter such as luciferase makes a cellular process visible.

Assay [2] has as its target ligand binding domain of human FXR (Homo sapiens (Human), UniProt Q96RI1). As to the kind of experiment: FXR ligand binding assay (LanthaScreen TR-FRET, SRC2-2 peptide recruitment). Particulars: for pEC50: -log EC50, concentration required to produce 50% activation; for Emax: read-out: % Efficacy. In general terms: In TR-FRET formats the signal depends on donor and acceptor labels being close together.

Where [3] appears, read: extent of activation relative to GW4064.

Read-outs that look alike come from different tables or passages of the source.

human Farnesoid X receptor ligand-binding domain/Gal4 DNA binding domain chimera, sequence (Q96RI1 262-486, change not shown): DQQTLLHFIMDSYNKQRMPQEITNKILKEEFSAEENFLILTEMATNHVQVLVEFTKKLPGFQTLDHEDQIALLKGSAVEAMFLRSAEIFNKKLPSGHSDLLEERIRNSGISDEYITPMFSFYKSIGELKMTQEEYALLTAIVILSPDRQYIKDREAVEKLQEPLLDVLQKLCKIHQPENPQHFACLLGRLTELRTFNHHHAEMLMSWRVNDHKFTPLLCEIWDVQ
human Farnesoid X receptor ligand-binding domain/Gal4 DNA binding domain chimera, sequence (P04386 1-147 partner): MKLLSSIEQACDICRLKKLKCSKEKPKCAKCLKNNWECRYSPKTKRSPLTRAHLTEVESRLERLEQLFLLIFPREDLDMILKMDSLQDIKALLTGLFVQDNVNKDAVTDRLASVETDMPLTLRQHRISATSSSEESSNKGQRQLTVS
ligand binding domain of human FXR, sequence (Q96RI1 262-486): as the sequence (Q96RI1 262-486, change not shown) above

`O=C(NCCS(=O)(=O)C1CC1)c1ccc(N2C[C@@H]3C[C@H]2C[C@H]3OCc2c(-c3c(Cl)cccc3Cl)noc2C2CC2)cc1F` [Compound I-171, N-[2-(cyclopropanesulfonyl)ethyl]-4-[(1S,4S,5R)-5-{[5-cyclopropyl-3-(2,6-dichlorophenyl)-1,2-oxazol-4-yl]methoxy}-2-azabicyclo[2.2.1]heptan-2-yl]-2-fluorobenzamide]: in assay [1], the Emax is 104% and the EC50 is 0.794 nM. In assay [2], the negative-log EC50 (pEC50) was found to be 8.6. In addition, in assay [2] (setting [3]), the Emax worked out at 147%.

As to `CC(C)(Cc1ccc(N2C[C@@H]3C[C@H]2C[C@H]3OCc2c(-c3c(Cl)cccc3Cl)noc2C2CC2)cc1F)C(=O)O` [Compound I-156, 3-{4-[(1S,4S,5R)-5-{[5-cyclopropyl-3-(2,6-dichlorophenyl)-1,2-oxazol-4-yl]methoxy}-2-azabicyclo[2.2.1]heptan-2-yl]-2-fluorophenyl}-2,2-dimethylpropanoic Acid], in assay [1], the Emax turned out to be 105% and the half-maximal effective concentration (EC50) is 39.8 nM. This compound also had a pEC50 in assay [2] of 7.6. Besides, in assay [2] (setting [3]), the Emax turned out to be 128%.

As for `O=C(O)c1cc(C2CCC2)c2nc(N3C[C@@H]4C[C@H]3C[C@H]4OCc3c(-c4c(Cl)cccc4Cl)noc3C3CC3)sc2c1` [Compound I-249, 4-cyclobutyl-2-[(1S,4S,5R)-5-{[5-cyclopropyl-3-(2,6-dichlorophenyl)-1,2-oxazol-4-yl]methoxy}-2-azabicyclo[2.2.1]heptan-2-yl]-1,3-benzothiazole-6-carboxylic Acid], the Emax in assay [1] was 114%; in assay [2] (setting [3]), 134%. This compound also had a concentration for a half-maximal effect (EC50) in assay [1] of 0.158 nM. In assay [2], the pEC50 is 8.4.

As to `O=C(O)CNC(=O)c1ccc(N2C[C@@H]3C[C@H]2C[C@H]3OCc2c(-c3c(Cl)cccc3Cl)noc2C2CC2)cc1F` [Compound I-167, 2-({4-[(1S,4S,5R)-5-{[5-cyclopropyl-3-(2,6-dichlorophenyl)-1,2-oxazol-4-yl]methoxy}-2-azabicyclo[2.2.1]heptan-2-yl]-2-fluorophenyl}formamido)acetic Acid], in assay [1], the Emax was 106% and the EC50 is 7.94 nM. This compound gave a negative logarithm of the EC50 (pEC50) in assay [2] of 8.7. Further, in assay [2] (setting [3]), the Emax came to 152%.

For the compound `O=C(O)C1CN(Cc2ccc(N3C[C@@H]4C[C@H]3C[C@H]4OCc3c(-c4c(Cl)cccc4Cl)noc3C3CC3)cc2)C1` [Compound I-160, 1-({4-[(1S,4S,5R)-5-{[5-cyclopropyl-3-(2,6-dichlorophenyl)-1,2-oxazol-4-yl]methoxy}-2-azabicyclo[2.2.1]heptan-2-yl]phenyl}methyl)azetidine-3-carboxylic Acid], in assay [1], the Emax turned out to be 110% and a half-maximal response (EC50) required 1000 nM. Besides, the pEC50 in assay [2] is recorded as 6.9. The Emax in assay [2] (setting [3]) was 93%.

As for `O=C(O)c1cc(F)c2nc(N3C[C@@H]4C[C@H]3C[C@H]4OCc3c(-c4ccccc4O)noc3C3CC3)sc2c1` [Compound I-291, 2-((1S,4S,5R)-5-((5-cyclopropyl-3-(2-hydroxyphenyl)isoxazol-4-yl)methoxy)-2-azabicyclo[2.2.1]heptan-2-yl)-4-fluorobenzo[d]thiazole-6-carboxylic acid], the concentration giving a half-maximal response (EC50) in assay [1] was below 31.6 nM. In assay [2], this compound had a pEC50 of 6.1. Moreover, in assay [2] (setting [3]), the Emax turned out to be 120%.

Consider `O=C(O)c1ccc(N2C[C@@H]3C[C@H]2C[C@H]3OCc2c(-c3c(Cl)cccc3Cl)noc2C2(F)CC2)cc1` [Compound I-56, 4-[(1S,4S,5R)-5-{[3-(2,6-dichlorophenyl)-5-(1-fluorocyclopropyl)-1,2-oxazol-4-yl]methoxy}-2-azabicyclo[2.2.1]heptan-2-yl]benzoic Acid], for which, in assay [1], the Emax was 125% and the EC50 is 2 nM. In assay [2], the pEC50 turned out to be 8.5. Also, the Emax in assay [2] (setting [3]) is 137%.

With `O=S(=O)(O)c1ccc(N2C[C@@H]3C[C@H]2C[C@H]3OCc2c(-c3c(Cl)cccc3Cl)noc2C2CC2)cc1` [Compound I-144, 4-[(1S,4S,5R)-5-{[5-cyclopropyl-3-(2,6-dichlorophenyl)-1,2-oxazol-4-yl]methoxy}-2-azabicyclo[2.2.1]heptan-2-yl]benzene-1-sulfonic Acid], the concentration for a half-maximal effect (EC50) in assay [1] is below 31.6 nM. Further, the pEC50 in assay [2] is 8.2. The Emax in assay [2] (setting [3]) is 128%.

In the case of `O=C(NS(=O)(=O)C1CC1)c1cc(F)c2nc(N3C[C@@H]4C[C@H]3C[C@H]4OCc3c(-c4c(Cl)cccc4Cl)noc3C3CC3)sc2c1` [Compound I-30, N-(cyclopropanesulfonyl)-2-[(1S,4S,5R)-5-{[5-cyclopropyl-3-(2,6-dichlorophenyl)-1,2-oxazol-4-yl]methoxy}-2-azabicyclo[2.2.1]heptan-2-yl]-4-fluoro-1,3-benzothiazole-6-carboxamide], the Emax in assay [1] was 114%; in assay [2] (setting [3]), 160%. This compound also had an EC50 in assay [1] of 2.51 nM. For the same compound, the pEC50 in assay [2] was 8.6.

`O=C(NS(=O)(=O)c1cn[nH]c1)c1ccc(N2C[C@@H]3C[C@H]2C[C@H]3OCc2c(-c3c(Cl)cccc3Cl)noc2C2CC2)cc1` [Compound I-188, N-((1H-pyrazol-4-yl)sulfonyl)-4-((1S,4S,5R)-5-((5-cyclopropyl-3-(2,6-dichlorophenyl)isoxazol-4-yl)methoxy)-2-azabicyclo[2.2.1]heptan-2-yl)benzamide]: in assay [1], the Emax was determined as 100% and a half-maximal response (EC50) required 6.31 nM. In addition, the Emax in assay [2] (setting [3]) stood at 150%.

Regarding `O=C(NS(=O)(=O)C1CCCCC1)c1ccc(N2C[C@@H]3C[C@H]2C[C@H]3OCc2c(-c3c(Cl)cccc3Cl)noc2C2CC2)cc1` [Compound I-181, N-(cyclohexanesulfonyl)-4-[(1S,4S,5R)-5-{[5-cyclopropyl-3-(2,6-dichlorophenyl)-1,2-oxazol-4-yl]methoxy}-2-azabicyclo[2.2.1]heptan-2-yl]benzamide], in assay [1], the Emax was found to be 110% and the EC50 was 0.0631 nM. Further, in assay [2], the pEC50 came to 8.8 and the Emax came to 166%.

Consider `O=C(O)CCc1ccc(N2C[C@@H]3C[C@H]2C[C@H]3OCc2c(-c3c(Cl)cccc3Cl)noc2C2CC2)cc1F` [Compound I-155, 3-{4-[(1S,4S,5R)-5-{[5-cyclopropyl-3-(2,6-dichlorophenyl)-1,2-oxazol-4-yl]methoxy}-2-azabicyclo[2.2.1]heptan-2-yl]-2-fluorophenyl}propanoic Acid], for which, in assay [1], the Emax turned out to be 102% and the concentration giving a half-maximal response (EC50) is 1 nM. For the same compound, in assay [2], the negative logarithm of the EC50 (pEC50) is reported as 8.3. In addition, in assay [2] (setting [3]), the Emax is 136%.

Turning to `O=C(O)c1cc(F)c2nc(N3C[C@@H]4C[C@H](OC(=O)c5c(-c6c(Cl)cccc6Cl)noc5C5CC5)[C@H]3C4)sc2c1` [Compound I-64, 2-[(1R,4S,6S)-6-[5-cyclopropyl-3-(2,6-dichlorophenyl)-1,2-oxazole-4-carbonyloxy]-2-azabicyclo[2.2.1]heptan-2-yl]-4-fluoro-1,3-benzothiazole-6-carboxylic Acid], in assay [1], the Emax amounted to 55% and the EC50 is 501 nM. Also, in assay [2], the negative-log EC50 (pEC50) is reported as above 4.5.

Take `Cc1cccc(Cl)c1-c1noc(C2CC2)c1CO[C@@H]1C[C@@H]2C[C@H]1CN2c1nc2c([C@H]3CCOC3)cc(C(=O)O)cc2s1` [Compound I-272, 2-((1S,4S,5R)-5-((3-(2-chloro-6-methylphenyl)-5-cyclopropylisoxazol-4-yl)methoxy)-2-azabicyclo[2.2.1]heptan-2-yl)-4-((R)-tetrahydrofuran-3-yl)benzo[d]thiazole-6-carboxylic Acid]: the Emax came to 105% in assay [1] and 132% in assay [2] (setting [3]). Moreover, the concentration for a half-maximal effect (EC50) in assay [1] is 0.501 nM. Besides, the negative-log EC50 (pEC50) in assay [2] is listed as 8.4.

For `Cc1cccc(Cl)c1-c1noc(C2CC2)c1CO[C@@H]1C[C@@H]2C[C@H]1CN2c1nc2c(OC3CC3)cc(C(=O)O)cc2s1` [Compound I-270, 2-((1S,4S,5R)-5-((3-(2-chloro-6-methylphenyl)-5-cyclopropylisoxazol-4-yl)methoxy)-2-azabicyclo[2.2.1]heptan-2-yl)-4-cyclopropoxybenzo[d]thiazole-6-carboxylic acid], the Emax came out at 106% in assay [1] and 150% in assay [2] (setting [3]). In assay [1], this compound had an EC50 of 0.1 nM. For the same compound, the pEC50 in assay [2] worked out at 8.7.

Regarding `O=C(O)c1cc([C@@H]2CCOC2)c2nc(N3C[C@@H]4C[C@H]3C[C@H]4OCc3c(-c4c(Cl)cccc4Cl)noc3C3CC3)sc2c1` [Compound I-252, 2-[(1S,4S,5R)-5-{[5-cyclopropyl-3-(2,6-dichlorophenyl)-1,2-oxazol-4-yl]methoxy}-2-azabicyclo[2.2.1]heptan-2-yl]-4-[(3S)-oxolan-3-yl]-1,3-benzothiazole-6-carboxylic Acid], the Emax was 107% in assay [1] and 135% in assay [2] (setting [3]). Further, in assay [1], the EC50 was 0.2 nM. The negative logarithm of the EC50 (pEC50) in assay [2] worked out at 8.6.

Regarding `O=C(O)c1ccc(N2C(=O)[C@@H]3C[C@H]2C[C@H]3OCc2c(-c3c(F)cccc3Cl)noc2C2CC2)cc1` [Compound I-306, 4-[(1S,4R,5R)-5-{[3-(2-chloro-6-fluorophenyl)-5-cyclopropyl-1,2-oxazol-4-yl]methoxy}-3-oxo-2-azabicyclo[2.2.1]heptan-2-yl]benzoic Acid], the Emax in assay [1] worked out at 108%; in assay [2] (setting [3]), 171%. In addition, the response in assay [1] was half-maximal at 2.51 nM (EC50). This compound came in with a pEC50 in assay [2] of 8.2.

In the case of `O=C(NS(=O)(=O)CC1CCOCC1)c1ccc(N2C(=O)[C@@H]3C[C@H]2C[C@H]3OCc2c(-c3c(Cl)cccc3Cl)noc2C2CC2)cc1F` [Compound I-333, 4-((1S,4R,5R)-5-((5-cyclopropyl-3-(2,6-dichlorophenyl)isoxazol-4-yl)methoxy)-3-oxo-2-azabicyclo[2.2.1]heptan-2-yl)-2-fluoro-N-(((tetrahydro-2H-pyran-4-yl)methyl)sulfonyl)benzamide], in assay [1], the Emax came out at 112% and the EC50 was 0.501 nM. In assay [2], this compound registered a pEC50 of 8.8. Moreover, the Emax in assay [2] (setting [3]) was 158%.
